Assay results taken from ChEMBL document CHEMBL1150719, “Constituents of Tritonia crocosmaeflora, I. Tricrozarin A, a novel antimicrobial naphthazarin derivative” (1987).
Converted amounts (≈) assume the structure as drawn.

Tests used:
Type in all cases: functional
Mucor racemosus = test: Antifungal activity against Mucor racemosus IFO 5403 at 27 degC by paper disk assay
Candida albicans = test: Antifungal activity against Candida albicans KF1 at 27 degC by paper disk assay
Bacillus subtilis = test: Antibacterial activity against Bacillus subtilis PCI 219 after 24 hrs at 37 degC by paper disk assay; details: PCI 219, 24 h
Saccharomyces = test: Antifungal activity against Saccharomyces sake KF26 at 27 degC by paper disk assay
Aspergillus niger = test: Antifungal activity against Aspergillus niger ATCC 6275 at 27 degC by paper disk assay
Micrococcus luteus = test: Antibacterial activity against Micrococcus luteus ATCC 9341 after 24 hrs at 37 degC by paper disk assay; details: ATCC 9341, 24 h

COC1=C(OC)C(=O)c2c(O)c3c(c(O)c2C1=O)OCO3 [TRICROZARIN A]
MIC (Mucor racemosus): 10.2 µg/mL (≈ 34.7 µM)
MIC (Candida albicans): 81.3 µg/mL (≈ 276 µM)
MIC (Bacillus subtilis): 5.1 µg/mL (≈ 17.3 µM)
MIC (Saccharomyces): 81.3 µg/mL (≈ 276 µM)
MIC (Aspergillus niger): 81.3 µg/mL (≈ 276 µM)
MIC (Micrococcus luteus): 112 µg/mL (≈ 381 µM)
